The test system of the assay is KDR. Nature of the assay: Tyrosine autophosphorylation of KDRcyt mutants (antiphosphotyrosine Western blot). Particulars: 1 mM ATP, 37° C., 10 min; Western blot with antiphosphotyrosine antibody PY20 (FIG. 4A). It is filed as biochemical, human. As to the method: Purified KDRcytE848 and KDRcytV848 were incubated with at concentrations of 12 ng or 120 ng, respectively, or without 1 mM ATP at 37° C. for 10 min. The reaction was stopped by the addition of an equal volume of 2× SDS-PAGE sample buffer and boiled for 5 min. Reaction products were separated by 7.5%/SDS-PAGE and analyzed by Western blot probed with the antiphosphotyrosine antibody PY20 (Transduction Laboratories; FIG. 4A), or an anti-KDR antibody (Santa Cruz Biotechnology; FIG. 4B) visualized using the ECL detection kit and quantified by scanning with a densitometer (Molecular Dynamics).
Background: In western blotting, separated proteins are transferred to a membrane and probed.

With “GST-KDRcytV848: GST fusion of the human KDR cytoplasmic tyrosine kinase domain with Val at position 848 (SEQ ID NO:2)”, the autophosphorylation result is given as “resulted in autophosphorylation”.
